Test results reported in PubChem BioAssay AID1918991 (Molecular Pharmacology Branch, DTP, NCI, 2023).

Tested on: 186277-243-T-J2-PDC complex spheroid growth
Assay: Anticancer human tumor 186277-243-T-J2-PDC patient-derived colon adenocarcinoma cell line growth inhibition [AhR]
Details: for IC50: curve of first compound; for viability, T/C: stronger effect = lower value
Text: Multicellular complex tumor spheroid response to aryl hydrocarbon receptor antagonists in combination with a variety of drugs and investigational agents in selected tumor cell lines
The current study was undertaken to assess response to aryl hydrocarbon receptor antagonists in combination with standard-of-care drugs and investigational agents in solid tumor complex spheroid models. Complex spheroids include a stromal component modeled by human endothelial cells (HUVEC) and fibroblasts modeled by human mesenchymal stem cells (MSCs). The concentration ranges selected for each drug and investigational agent were based upon clinically achievable concentrations if the clinical Cmax of the agent was known.
Compounds. The drugs and investigational agents: BAY 2416964 (NSC825713), GNF351 (NSC835774), CH-223191 (NSC835775), CPI-455 (NSC825282), aza-TdCyd (NSC777586), decitabine (NSC127716), belinostat (NSC758774), entinostat (NSC756642), pevonedistat (NSC761192), tazemetostat (NSC777109), talazoparib (NSC765396), olaparib (NSC753686), selinexor (NSC780203), nedisertib (M3814, NSC802822), bortezomib (NSC756655), venetoclax (NSC766270), doxorubicin (NSC123127), elimusertib (BAY189344, NSC800525), ceralasertib (AZD6738, NSC777638), TAK-243 (NSC785004), alisertib (NSC759677), etoposide (NSC141540), topotecan (NSC609699), eribulin (NSC707389), gemcitabine (NSC613327), carboplatin (NSC241240), cisplatin (NSC119875), and SN-38 (NSC673596) were obtained from the National Cancer Institute (NCI) Developmental Therapeutics Program Chemical Repository (32). The FDA-approved anticancer drug set is available from the Developmental Therapeutics Program at https://dtp.cancer.gov/organization/dscb/obtaining/available plates.htm. […] The stock solutions were prepared in dimethyl sulfoxide (DMSO, Sigma-Aldrich, St. Louis, MO, cat. D2650), except for the platinum compounds which were prepared in saline (Quality Biological, Gaithersburg, MD, cat. 114-055-101), at 800-fold the tested concentration and stored at -70 degrees C prior to their use. All drugs and investigational agents were tested over a range starting from a high concentration at or near the clinical Cmax and decreasing in half-log increments. If the clinical Cmax for an agent had not been determined, the highest concentration tested was 10 microM (Table 1).
Cell Culture. All cells were maintained in an incubator at 37 degrees C and 5% CO2 with 95% humidity. The PDC lines were cultured according to standard operating procedures established by the NCI PDMR (https://pdmr.cancer.gov). Briefly, all PDCs were thawed and cultured in Matrigel-coated flasks prepared with a working solution of 1X Ham's F-12 nutrient mix, without supplementation (Invitrogen, Waltham, MA, cat. 11765054), 100 U/mL penicillin-streptomycin (Invitrogen, cat. 15140122), and 2.5% Matrigel (Corning Inc., Corning, NY, cat. 354248) for the first three passages. All PDCs were cultured in complete DMEM/F-12 media containing advanced DMEM/F-12 (Invitrogen, cat. 12634028), 4.9% defined fetal bovine serum, heat inactivated (HyClone Laboratories Inc., Logan, UT, cat. SH30070.03HI), 389 ng/mL hydrocortisone (Sigma-Aldrich, cat. H4001), 9.7 ng/mL human EGF recombinant protein (Invitrogen, cat. PHG0313), 23.4 microg/mL adenine (Sigma-Aldrich, cat. A2786), 97.3 U/mL penicillin-streptomycin (Invitrogen, cat. 15140122), 1.9 mM L-glutamine (Invitrogen, cat. 25030081), and 9.7 microM Y-27632 dihydrochloride (Tocris Bioscience, Bristol, United Kingdom, cat. 1254). The PDCs were cultured in complete DMEM/F12 media without 10 microM Y-27632 dihydrochloride for at least two passages prior to the screen. The established cell lines NCI-H1341 and […] were cultured in DMEM/F-12, HEPES (Invitrogen, cat. 11330032), 5% defined fetal bovine serum (HyClone Laboratories Inc., cat. SH30070.03), ITS premix universal culture supplement [insulin (5 microg/mL), transferrin (5 microg/mL), and selenious acid (5 ng/mL)] […]

[1] = second compound 0.1 µM, first compound 0.0316 µM
[2] = second compound 0.1 µM, first compound 0.1 µM
[3] = second compound 0.1 µM, first compound 0.316 µM
[4] = second compound 0.1 µM, first compound 1 µM
[5] = second compound 0.1 µM, first compound 3.16 µM
[6] = second compound 0.1 µM, first compound 10 µM
[7] = second compound 0.316 µM, first compound 0.0316 µM
[8] = second compound 0.316 µM, first compound 0.1 µM
[9] = second compound 0.316 µM, first compound 0.316 µM
[10] = second compound 0.316 µM, first compound 1 µM
[11] = second compound 0.316 µM, first compound 3.16 µM
[12] = second compound 0.316 µM, first compound 10 µM
[13] = second compound 1 µM, first compound 0.0316 µM
[14] = second compound 1 µM, first compound 0.1 µM
[15] = second compound 1 µM, first compound 0.316 µM
[16] = second compound 1 µM, first compound 1 µM
[17] = second compound 1 µM, first compound 3.16 µM
[18] = second compound 1 µM, first compound 10 µM
[19] = second compound 3.16 µM, first compound 0.0316 µM
[20] = second compound 3.16 µM, first compound 0.1 µM
[21] = second compound 3.16 µM, first compound 0.316 µM
[22] = second compound 3.16 µM, first compound 1 µM
[23] = second compound 3.16 µM, first compound 3.16 µM
[24] = second compound 3.16 µM, first compound 10 µM
[25] = second compound 10 µM, first compound 0.0316 µM
[26] = second compound 10 µM, first compound 0.1 µM
[27] = second compound 10 µM, first compound 0.316 µM
[28] = second compound 10 µM, first compound 1 µM
[29] = second compound 10 µM, first compound 3.16 µM
[30] = second compound 10 µM, first compound 10 µM
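Note: spheroids exposed to compounds for seven days before the viability read.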
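Throughout, for viability, T/C: luminescent signal used as a stand-in for viable cell amount; 100% = DMSO vehicle control wells.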

## Nc1ccccc1NC(=O)c1ccc(CNC(=O)OCc2cccnc2)cc1 + Cc1ccccc1N=Nc1ccc(NC(=O)c2ccnn2C)c(C)c1
Second compound 0.1 µM
  IC50: 5860 nM
Second compound 0.316 µM
  IC50: 5370 nM
Second compound 1 µM
  IC50: 5560 nM
Second compound 3.16 µM
  IC50: 5100 nM
Second compound 10 µM
  IC50: 4120 nM
[1]
  viability, T/C: 97.5%
[2]
  viability, T/C: 90%
[3]
  viability, T/C: 95.1%
[4]
  viability, T/C: 105%
[5]
  viability, T/C: 88.3%
[6]
  viability, T/C: 16.5%
[7]
  viability, T/C: 106%
[8]
  viability, T/C: 95.9%
[9]
  viability, T/C: 96.7%
[10]
  viability, T/C: 94.4%
[11]
  viability, T/C: 79%
[12]
  viability, T/C: 16.2%
[13]
  viability, T/C: 102%
[14]
  viability, T/C: 96.7%
[15]
  viability, T/C: 108%
[16]
  viability, T/C: 91.4%
[17]
  viability, T/C: 85.4%
[18]
  viability, T/C: 15%
[19]
  viability, T/C: 93.9%
[20]
  viability, T/C: 97.7%
[21]
  viability, T/C: 84.8%
[22]
  viability, T/C: 96.8%
[23]
  viability, T/C: 75.9%
[24]
  viability, T/C: 13.2%
[25]
  viability, T/C: 82.8%
[26]
  viability, T/C: 94.2%
[27]
  viability, T/C: 96.5%
[28]
  viability, T/C: 97.4%
[29]
  viability, T/C: 61.2%
[30]
  viability, T/C: 12.6%

## CC1COCCN1c1cc(C2(S(C)(=N)=O)CC2)nc(-c2ccnc3[nH]ccc23)n1 (stereo not given) + CC(CO)NC(=O)c1cc(-c2ccc(Cl)cc2)nn(-c2cnn(C)c2)c1=O
Second compound 0.1 µM
  IC50: 885 nM
Second compound 0.316 µM
  IC50: 899 nM
Second compound 1 µM
  IC50: 801 nM
Second compound 3.16 µM
  IC50: 734 nM
Second compound 10 µM
  IC50: 611 nM
[1]
  viability, T/C: 99.5%
[2]
  viability, T/C: 97.3%
[3]
  viability, T/C: 86%
[4]
  viability, T/C: 47%
[5]
  viability, T/C: 5.74%
[6]
  viability, T/C: 3.37%
[7]
  viability, T/C: 97.9%
[8]
  viability, T/C: 101%
[9]
  viability, T/C: 87.3%
[10]
  viability, T/C: 47.1%
[11]
  viability, T/C: 6.52%
[12]
  viability, T/C: 3.04%
[13]
  viability, T/C: 109%
[14]
  viability, T/C: 92.8%
[15]
  viability, T/C: 89.8%
[16]
  viability, T/C: 41.1%
[17]
  viability, T/C: 5.47%
[18]
  viability, T/C: 2.94%
[19]
  viability, T/C: 91.1%
[20]
  viability, T/C: 90.9%
[21]
  viability, T/C: 76.9%
[22]
  viability, T/C: 41%
[23]
  viability, T/C: 5.43%
[24]
  viability, T/C: 2.86%
[25]
  viability, T/C: 76.3%
[26]
  viability, T/C: 75.9%
[27]
  viability, T/C: 71.8%
[28]
  viability, T/C: 33.7%
[29]
  viability, T/C: 6.79%
[30]
  viability, T/C: 3.4%

## Nc1ccn(C2OC(CO)C(O)C2(F)F)c(=O)n1 (stereo not given) + Cc1cncc(-c2nc(NCCc3c[nH]c4ccccc34)c3ncn(C(C)C)c3n2)c1
Second compound 0.1 µM
  IC50: < 31.6 nM
Second compound 0.316 µM
  IC50: < 31.6 nM
Second compound 1 µM
  IC50: < 31.6 nM
Second compound 3.16 µM
  IC50: < 31.6 nM
Second compound 10 µM
  IC50: < 31.6 nM
[1]
  viability, T/C: 7.18%
[2]
  viability, T/C: 8.73%
[3]
  viability, T/C: 9.08%
[4]
  viability, T/C: 7.46%
[5]
  viability, T/C: 9.53%
[6]
  viability, T/C: 8.43%
[7]
  viability, T/C: 7.58%
[8]
  viability, T/C: 7.59%
[9]
  viability, T/C: 8.77%
[10]
  viability, T/C: 7.4%
[11]
  viability, T/C: 9.8%
[12]
  viability, T/C: 10.2%
[13]
  viability, T/C: 8.42%
[14]
  viability, T/C: 8.73%
[15]
  viability, T/C: 8.67%
[16]
  viability, T/C: 8.54%
[17]
  viability, T/C: 10.4%
[18]
  viability, T/C: 9.89%
[19]
  viability, T/C: 8.88%
[20]
  viability, T/C: 9.87%
[21]
  viability, T/C: 8.78%
[22]
  viability, T/C: 9.16%
[23]
  viability, T/C: 10.2%
[24]
  viability, T/C: 11.2%
[25]
  viability, T/C: 9.79%
[26]
  viability, T/C: 9.68%
[27]
  viability, T/C: 7.97%
[28]
  viability, T/C: 8.56%
[29]
  viability, T/C: 9.28%
[30]
  viability, T/C: 10.2%
